“Also recorded” adds a separate entry of the source.
Assays:
X. indica strain V = experiment: Growth curve of X. indica strain V with fed benzoic acid derivative; type: cell-based, Xenorhabdus indica; details: with and without 3,4-AHBA, in presence or not of IPTG
Method: (§1) In order to analyze the growth curve, the strains were cultured in microtiter plates in a Tecan Spark microplate reader (FIG. 14). A comparison was initially made between strain V and strain VII with and without the addition of 3,4-AHBA (FIGS. 14 A and B). Furthermore, to investigate the sole effect of 3,4-AHBA on the cells, 3,4-AHBA was added to the cells in presence or not of the rpm BGC inducer IPTG (FIGS. 14A and B). […] Subsequently, in order to investigate the effect of the amino group on the benzoic acid, 3,4-DHBA was fed to both strains (FIGS. 14 C and D). […] It can therefore be concluded that the amino group is crucial for the bioactivity of rupshomycin.

[1] = tested on: X. indica ΔrpmM-O mutant with vector expressing rpmM and rpmN (strain VIII); details: 3,4-AHBA and IPTG; compared to empty vector control
Method: (§2) Addition of the inducer and benzoic acid was added from the start. The numbering I-IX corresponds to the strains in FIG. 12. A: growth of strain I culture with and without induction (1 mM IPTG), with and without addition of 3,4-AHBA. B: growth of strain V culture with and without induction, with and without addition of 3,4-AHBA. C: growth of strain I culture with and without induction, with and without addition of 3,4-DHBA. D: growth of strain V culture with and without induction, with and without addition of 3,4-DHBA. E: growth of induced and 3,4-AHBA supplemented strain VIII culture with vector expressing rpmMN or empty expression vector. F: growth of induced and 3,4-AHBA supplemented strain IX culture with vector expressing rpmO or empty expression vector.
(§3) Which of the rpmM-O genes are responsible for resistance to the biosynthesis product of the rpm BGC was the question addressed in the following studies. […] The influence of the vector was excluded by conjugating an empty vector into the strains as a control. […] Production of rupshomycins were performed in XPP3 medium with 2% (v/v) XAD-16 for in situ extraction.

[2] = tested on: X. indica ΔrpmM-O mutant with empty vector; details: 3,4-AHBA and IPTG; empty vector control
Method: as §2, §3

[3] = tested on: X. indica ΔrpmM-O mutant with vector expressing rpmO (strain IX); details: 3,4-AHBA and IPTG; compared to empty vector control
Method: as §2, §3

[4] = tested on: X. indica ΔrpmM-O mutant (strain VII); experiment: Growth curve of X. indica ΔrpmM-O mutant (strain VII) with fed benzoic acid derivative; type: cell-based, Xenorhabdus indica
Method: To elucidate the influence of rpmM-O on biosynthesis, they were deleted together bases on pAR20 with the synthetic dsDNA fragments used for CRISPR/Cas12 mediated genome editing specific HA-L and R SEQ ID NOs 177-178 The resulting mutant ΔrpmM-O was then analysed for production and growth. Also with the addition of 3,4-AHBA, no growth and thus no production could be observed (FIG. 12 VII).
as §1

proteasome = details: role: inhibitor; cited from earlier work

## Nc1cc(C(=O)O)ccc1O [3,4-AHBA, 3-amino-4-hydroxy benzoic acid]
X. indica strain V
  growth: no particular growth differences were observed
[1]
  growth: significant growth of the culture compared to the empty vector control
[2]
  growth: severe growth defect of the culture
[3]
  growth: no significant growth of the culture was observed compared to the empty vector control
[4]; 3,4-AHBA fed, rpm BGC induced, 96 well microtiter plate, 24 hours
  growth: culture dies after induction; also recorded: no growth; also recorded: a weak growth was observed in the first 3 hours, which then quickly collapsed and fell below the optical density of the starting point of the experiment

## CC(C)CCCCC/C=C/C=C/C(=O)N[C@H](C(=O)N[C@H]1CC(O)CCNC(=O)/C=C/C(C)NC1=O)[C@@H](C)O (some centres unmarked) [cepafungin I]
proteasome
  proteasome inhibition: potent proteasome inhibitors

## CCCCCCC/C=C/C=C/C(=O)N[C@H](C(=O)N[C@H]1C[C@@H](O)CCNC(=O)/C=C/[C@H](C)NC1=O)[C@@H](C)O [glidobactin A]
proteasome
  proteasome inhibition: potent proteasome inhibitors

## O=C(O)c1ccc(O)c(O)c1 [3,4-DHBA]
[4]; 3,4-DHBA fed, induced vs non-induced culture
  growth: did not lead to the complete death of the ΔrpmM-O culture, but to a growth deficiency compared to the non-induced culture

Reference: patent US20260297627A1, “MODULATION OF GLOBAL REGULATORY MECHANISMS AND BIOSYNTHETIC GENE CLUSTERS FOR SIMPLIFIED PRODUCTION OF NATURAL PRODUCTS” (priority 2023, published 2026)
